From patent US5380825A (Sigma Chemical Company, priority 1991, dated 1995)
Converted amounts (≈) assume the structure as drawn.

Key:
Type in all cases: binding
AZT antibodies = test: Immunological activity / tracer performance in FPIA for AZT (qualitative); conditions: for immunological activity in FPIA for AZT / performance as tracer for determination of AZT by FPIA / inhibition in FPIA for AZT: qualitative; for inhibition in FPIA for AZT: inhibitor of polarization
Protocol: (§1) An equal volume of precipitation reagent was added per microcentrifuge tube. The tubes were centrifuged at greater than 9,000×g for 1 minute.
(§2) (2) A 17.5 ul sample of each serum extract was brought to approximately pH 7-8 by the addition of buffer.
(§3) (4) After an appropriate incubation time, the polarization of each reaction mixture was determined using a polarization spectrofluorimeter.

[1] = test system: antisera to AZT, Rabbit 2 (immunized with AZT-3-V:BSA); test: FPIA comparison of tracers, antiserum of Rabbit 2 (Table 1); conditions: for Polarization Units (P × 1000): 1 pmole of tracer, antiserum at the given titer; for ED50 AZT: concentration of AZT giving 50% reduction in polarization of this tracer relative to 0 tube; for Titer [Ab]: dilution of antiserum required to obtain the given polarization units with 1 pmole of tracer
Protocol: (§4) The immunogen (1 mg in 1 ml) was emulsified with an equal volume of Freund's Complete Adjuvant and injected intradermally into each of two female albino rabbits. The process was repeated in two weeks. Two weeks later, monthly subcutaneous booster injections were begun with 0.5 mg in 0.5 ml of the immunogen and 0.5 ml of Freund's Incomplete Adjuvant per animal. The rabbits were bled biweekly by a marginal ear vein technique beginning six weeks after the primary immunization. The blood collected was refrigerated, allowing clots to form, and the supernatant (antiserum) retained. The antiserum from each rabbit was collected and stored, either at -20° C. without preservative, or at 4° C. after addition of sodium azide to a final concentration of 0.1%. The same schedule was followed for each immunogen. Rabbits immunized produced antibodies to AZT.
(§5) Fluorescence Polarization Immunoassay for AZT
as §1, §2, §3
(§6) As further illustration of the invention polyclonal antibodies were raised in two rabbits by immunization with the conjugate of Example 4 (AZT-3-V:BSA) as is more fully described in Example 45 and stored at 4° C. with 0.1% sodium azide. A number of tracers were then compared as to their performance in FPIA using the antisera raised from two rabbits.
(§7) ^(1) TITER was defined as the dilution of antiserum (i.e., [Ab])
(§8) required to obtain the given polarization units (P × 1000) with 1
(§9) required to give a 50% reduction in polarization relative to a control (0
(§10) tube) containing no unlabeled AZT.

[2] = test system: antisera to AZT, Rabbit 1 (immunized with AZT-3-V:BSA); test: FPIA comparison of tracers, antiserum of Rabbit 1 (Table 1); conditions: for Polarization Units (P × 1000): 1 pmole of tracer, antiserum at the given titer; for ED50 AZT: concentration of AZT giving 50% reduction in polarization of this tracer relative to 0 tube; for Titer [Ab]: dilution of antiserum required to obtain the given polarization units with 1 pmole of tracer
Protocol: as §4, §5, §1, §2, §3, §6, §7, §8, §9, §10

| Compound | immunological activity in FPIA for AZT (AZT antibodies) | performance as tracer for determination of AZT by FPIA (AZT antibodies) | Polarization Units (P × 1000) [1] [P × 1000] | ED50 AZT [1] | Titer [Ab] [1] | Polarization Units (P × 1000) [2] [P × 1000] | ED50 AZT [2] [µg/mL] | Titer [Ab] [2] | inhibition in FPIA for AZT (AZT antibodies) | "cross-reactivity" relative to AZT in an AZT assay by FPIA (AZT antibodies; relative to AZT) |
| --- | --- | --- | --- | --- | --- | --- | --- | --- | --- | --- |
| Cc1cn([C@H]2C[C@H](N=[N+]=[N-])[C@@H](CO)O2)c(=O)n(CCCN)c1=O [Example 28, 3-(3-aminopropyl)-3'-azido-3'-deoxythymidine] | immunologically active |  |  |  |  |  |  |  |  |  |
| COC(=O)C(Cc1ccc(O)cc1)NC(=O)CCCn1c(=O)c(C)cn([C@H]2C[C@H](N=[N+]=[N-])[C@@H](CO)O2)c1=O (stereo partly drawn) [Example 16, 2-[4-(3'-azido-3'-deoxythymid-3-yl)-butyramido]-3-(4-hydroxyphenyl)-propionic acid methyl ester] | immunologically active |  |  |  |  |  |  |  |  |  |
| Cc1cn([C@H]2C[C@H](N=[N+]=[N-])[C@@H](CO)O2)c(=O)n(CCNC(=S)Nc2ccc3c(c2)C(=O)OC32c3ccc(O)cc3Oc3cc(O)ccc32)c1=O [Example 29, 5-[2-(3'-azido-3'-deoxythymid-3-yl)-ethyl-thiocarbamyl]fluorescein] |  | satisfactory tracer | 177 | 2.9 µg/mL (≈ 4.14 µM) | 58 | 180 | 3.9 (≈ 5.57 µM) | 150 |  |  |
| Cc1cn([C@H]2C[C@H](N=[N+]=[N-])[C@@H](COC(=O)CCC(=O)NCCNC(=S)Nc3ccc4c(c3)C(=O)OC43c4ccc(O)cc4Oc4cc(O)ccc43)O2)c(=O)[nH]c1=O [Example 42] | Immunoactivity of this label was demonstrated |  |  |  |  |  |  |  |  |  |
| COc1nc(NCCCn2c(=O)c(C)cn([C@H]3C[C@H](N=[N+]=[N-])[C@@H](CO)O3)c2=O)nc(Nc2ccc3c(c2)C(=O)OC32c3ccc(O)cc3Oc3cc(O)ccc32)n1 [Example 32, 3-[3-[4-(fluoresceinyl-5)-6-methoxy-s-triazin-2-yl]-aminopropyl]-3'-azido-3'-deoxythymidine] |  | satisfactory tracer | 170 | ~ 8.0 ug/ml | 183 | 179 | 3.1 (≈ 3.98 µM) | 550 |  |  |
| Cc1cn([C@H]2C[C@H](N=[N+]=[N-])[C@@H](CO)O2)c(=O)n(CCNC(=O)CCc2ccc(O)cc2)c1=O [Example 33, 3-[2-[3-(4-hydroxyphenyl)-propionamido]-ethyl]-3'-azido-3'-deoxythymidine] |  |  |  |  |  |  |  |  | effective inhibitor of polarization |  |
| Cc1cn([C@H]2C[C@H](N=[N+]=[N-])[C@@H](CO)O2)c(=O)n(CCCN2C(=O)c3ccccc3C2=O)c1=O [Example 26, 3-(3-phthalimidopropyl)-3'-azido-3'-deoxythymidine] | immunologically active |  |  |  |  |  |  |  |  |  |
| Cc1cn([C@H]2C[C@H](N=[N+]=[N-])[C@@H](CO)O2)c(=O)n(CC(=O)O)c1=O [Example 19, 3-carboxymethyl-3'-azido-3'-deoxythymidine] | immunological activity |  |  |  |  |  |  |  |  |  |
| Cc1cn([C@H]2C[C@H](N=[N+]=[N-])[C@@H](CO)O2)c(=O)n(CCCNC(=S)Nc2ccc3c(c2)C(=O)OC32c3ccc(O)cc3Oc3cc(O)ccc32)c1=O [Example 30, 5-[3-(3'-azido-3'-deoxythymid-3-yl)-propyl-thiocarbamyl]fluorescein] |  | satisfactory tracer | 170 | 4.0 µg/mL (≈ 5.6 µM) | 80 | 159 | > 4.0 | 80 |  |  |
| 3-carbethoxy-3'-azido-3'-deoxythymidine [Example 21] | immunologically active |  |  |  |  |  |  |  |  | approximately 110% |
| O=C(O)CCc1ccc(O)cc1 [HPPA, 3-(4-hydroxyphenyl)propionic acid, reference compound] |  |  |  |  |  |  |  |  | unlike 3-(4-hydroxyphenyl)propionic acid (HPPA), was an effective inhibitor of polarization |  |
| Cc1cn([C@H]2C[C@H](N=[N+]=[N-])[C@@H](CO)O2)c(=O)n(CCCCC(=O)Nc2ccc3c(c2)C(=O)OC32c3ccc(O)cc3Oc3cc(O)ccc32)c1=O [Example 6] | immunologically active |  | 175 | 8.0 µg/mL (≈ 11.5 µM) | 130 | 179 | 4.0 (≈ 5.74 µM) | 300 |  |  |
| Cc1cn([C@H]2C[C@H](N=[N+]=[N-])[C@@H](CO)O2)c(=O)n(CCCC(=O)NCCNC(=S)Nc2ccc3c(c2)C(=O)OC32c3ccc(O)cc3Oc3cc(O)ccc32)c1=O [Example 15, 5-[[4-(3'-azido-3'-deoxythymid-3-yl)-butyramido]-ethylthiocarbamyl]-fluorescein] | Immunological activity against AZT was confirmed |  | 184 | 4.0 µg/mL (≈ 5.1 µM) | 73 | 165 | 4.0 (≈ 5.1 µM) | 200 |  |  |
| Cc1cn([C@H]2C[C@H](N=[N+]=[N-])[C@@H](CO)O2)c(=O)n(CCCNc2nc(Cl)nc(Nc3ccc4c(c3)C(=O)OC43c4ccc(O)cc4Oc4cc(O)ccc43)n2)c1=O [Example 34, 3-[3-[4-(Fluoresceinyl-5)-6-chloro-s-triazin-2-yl]-aminopropyl]-3'-azido-3'-deoxythymidine] | immunologically active |  | 168 | 4.0 µg/mL (≈ 5.11 µM) | 140 | 171 | 2.0 (≈ 2.55 µM) | 500 |  |  |
| Cc1cn([C@H]2C[C@H](N=[N+]=[N-])[C@@H](CO)O2)c(=O)n(CCNc2nc(Cl)nc(Nc3ccc4c(c3)C(=O)OC43c4ccc(O)cc4Oc4cc(O)ccc43)n2)c1=O [AZT--(CH2)n --NH:DTAF, n=2] |  |  | 156 | > 8.0 µg/mL | 125 | 162 | 4.0 (≈ 5.2 µM) | 250 |  |  |
| Cc1cn([C@H]2C[C@H](N=[N+]=[N-])[C@@H](CO)O2)c(=O)n(CCCC(=O)Nc2ccc3c(c2)C2(OC3=O)c3ccc(O)cc3Oc3cc(O)ccc32)c1=O [Example 14, 6-[4-(3'-azido-3'-deoxythymid-3-yl)-butyramido]-fluorescein] |  |  | 159 | 1.4 µg/mL (≈ 2.05 µM) | 74 | 167 | 0.6 (≈ 0.879 µM) | 150 |  |  |
| Cc1cn([C@H]2C[C@H](N=[N+]=[N-])[C@@H](CO)O2)c(=O)n(CCCNC(=S)Nc2ccc3c(c2)C2(OC3=O)c3cc(I)c(O)c(I)c3Oc3c2cc(I)c(O)c3I)c1=O [Example 36, 6-[3-(3 '-amido-3'-deoxythymid-3-yl)-propyl-thiocarbamyl]-erythrosin] | immunologically active |  |  |  |  |  |  |  |  |  |
| Cc1cn([C@H]2C[C@H](N=[N+]=[N-])[C@@H](CO)O2)c(=O)n(CCCC(=O)NCC(=O)N[C@@H](Cc2ccc(O)cc2)C(=O)O)c1=O [Example 18, N-[4-(3'-azido-3'-deoxythymid-3-yl)-butyryl]-glycyl-L-tyrosine] | immunologically active |  |  |  |  |  |  |  |  |  |
| Cc1cn([C@H]2C[C@H](N=[N+]=[N-])[C@@H](CO)O2)c(=O)n(CCCCC(=O)NCCNC(=S)Nc2ccc3c(c2)C(=O)OC32c3ccc(O)cc3Oc3cc(O)ccc32)c1=O [Example 7, 5-[[5-(3'-azido-3'-deoxythymid-3-yl)-valeramido]-ethylthiocarbamyl]-fluorescein] |  |  | 197 | > 8.0 µg/mL | 3 |  |  | 1 |  |  |
| Cc1cn([C@H]2C[C@H](N=[N+]=[N-])[C@@H](CO)O2)c(=O)n(CC(=O)Nc2ccc3c(c2)C(=O)OC32c3ccc(O)cc3Oc3cc(O)ccc32)c1=O [Example 22, 5-[2-(3'-azido-3'-deoxythymid-3-yl)-acetamido]-fluorescein] |  |  | 150 | 2.0 µg/mL (≈ 3.06 µM) | 105 | 164 | 1.4 (≈ 2.14 µM) | 150 |  |  |
| Cc1cn([C@H]2C[C@H](N=[N+]=[N-])[C@@H](CO)O2)c(=O)n(CC(=O)NCCNC(=S)Nc2ccc3c(c2)C(=O)OC32c3ccc(O)cc3Oc3cc(O)ccc32)c1=O [Example 23, 5-[[2-(3'-azido-3'-deoxythymid-3-yl)-acetamido]-ethylthiocarbamyl]-fluorescein] |  |  | 164 | 1.4 µg/mL (≈ 1.85 µM) | 28 | 173 | 2.4 (≈ 3.17 µM) | 53 |  |  |
